Source: patent US8129537B2, “Compounds as PDE IV and TNF inhibitors” (Rhone-Poulenc Rorer Limited, priority 1993, dated 2012)

SMILES	melting point [°C]
COc1ccc(C(=O)Nc2c(Cl)cc(C=O)cc2Cl)cc1OC1CCCC1 [BY, N-(2,6-dichloro-4-formylphenyl)-3-cyclopentyloxy-4-methoxy-benzamide]	96 to 98
COc1cc(F)c(C(=O)Cc2c(Cl)cncc2Cl)cc1OC1CCCC1 [Compound CH, 2-(3,5-dichloropyrid-4-yl)-1-(3-cyclopentyloxy-6-fluoro-4-methoxyphenyl)ethanone]	115 to 116.5
Cc1ncc(C(=S)Nc2c(Cl)cncc2Cl)cc1OC(C)C [Compound CV, N-(3,5-dichloro-4-pyridyl)-5-isopropyloxy-6-methylthionicotinamide]	167 to 168
COc1cnc(C(=O)Cc2c(Cl)cncc2Cl)cc1OC1CCCC1 [Compound FG, 1-(4-cyclopentyloxy-5-methoxypyridin-2-yl)-2-(3,5-dichloropyridin-4-yl)ethanone]	132
COc1ccc(/C=C/c2c(Cl)cccc2Cl)cc1OC1CCCC1 [Compound GF, trans-1-(3-cyclopentyloxy-4-methoxyphenyl)-2-(2,6-dichlorophenyl)ethene]	47 to 49
COc1ccc(C(=O)Nc2c(Cl)cc(N)cc2Cl)cc1OC1CCCC1 [BS, N-(2,6-dichloro-4-aminophenyl)-3-cyclopentyloxy-4-methoxybenzamide]	170 to 172
COc1c[n+]([O-])c(C(=O)Nc2c(Cl)cncc2Cl)cc1OCC1CC1 [FZ, N-(3,5-dichloropyridin-4-yl)-4-cyclopropylmethoxy-5-methoxy-1-oxidopyridinium-2-carboxamide]	178 to 180
COc1ncc(C(=O)Nc2c(C)noc2C)cc1OC1CCCC1 [Compound CQ, 5-cyclopentyloxy-N-(3,5-dimethylisoxazol-4-yl)-6-methoxynicotinamide]	139 to 140
Cc1ncc(C(=S)Nc2c(Cl)cncc2Cl)cc1OC1CCCC1 [Compound CU, 5-cyclopentyloxy-N-(3,5-dichloro-4-pyridyl)-6-methylthionicotinamide]	144 to 145
COc1ccc(C(=O)Nc2c(Cl)cncc2Cl)cc1OC1CC=CC1 [BK, N-(3,5-dichloropyrid-4-yl)-3-cyclopent-3-enyloxy-4-methoxybenzamide]	193 to 195
COc1ncc(C(=O)Nc2c(Cl)cccc2Cl)cc1OC1CCCC1 [Compound CP, N-(2,6-dichlorophenyl)-5-cyclopentyloxy-6-methoxynicotinamide]	145 to 146
CSc1ncc(C(=O)Cc2c(Cl)cncc2Cl)cc1OC(C)C [Compound CW, 2-(3,5-dichloro-4-pyridyl)-1-(5-isopropyloxy-6-methylthio-3-pyridyl)ethanone]	124 to 125
COc1cc(F)c(C(=O)Nc2c(Cl)cncc2Cl)cc1OC1CCCC1 [A, N-(3,5-dichloropyrid-4-yl)-3-cyclopentyloxy-6-fluoro-4-methoxybenzamide]	143 to 144
COc1ncc(C(=O)Nc2c(F)cncc2F)cc1OC1CCCC1 [Compound CR, 5-cyclopentyloxy-N-(3,5-difluoropyrid-4-yl)-6-methoxynicotinamide]	210 to 211
COc1ccc(C(=O)Nc2c(Cl)cc(NC(C)=O)cc2Cl)cc1OC1CCCC1 [BU, N-(4-acetylamino-2,6-dichlorophenyl)-3-cyclopentyloxy-4-methoxybenzamide]	250 to 252
COc1ncc(C(=O)Nc2c(Cl)cncc2Cl)cc1OC1CCCC1 [Compound CO, 5-cyclopentyloxy-N-(3,5-dichloropyrid-4-yl)-6-methoxynicotinamide]	182 to 183
COc1ccc(C(=O)Nc2c(Cl)cc(CO)cc2Cl)cc1OC1CCCC1 [BW, N-(2,6-dichloro-4-hydroxymethylphenyl)-3-cyclopentyloxy-4-methoxybenzamide]	174 to 176
O=C(Nc1c(Cl)cncc1Cl)c1cc(OC2CCCC2)c(OC(F)F)cn1 [Compound GO, N-(3,5-dichloropyridin-4-yl)-4-cyclopentyloxy-5-difluoromethoxypyridine-2-carboxamide]	131 to 132
COc1ccc(C(=O)C(=O)c2ccncc2)cc1OC1CCCC1 [Compound GK, 1-(3-cyclopentyloxy-4-methoxyphenyl)-2-(pyrid-4-yl)ethane-1,2-dione]	117 to 119
COc1cnc(C(=O)Nc2c(Cl)cncc2Cl)cc1OC1CCCC1 [DA, N-(3,5-dichloropyrid-4-yl)-4-cyclopentyloxy-5-methoxypyridine-2-carboxamide]	129 to 130
COc1ccc(C(=O)Nc2c(Cl)cncc2Cl)cc1OC1C=CCC1 (racemic) [BI, (±)-N-(3,5-dichloropyrid-4-yl)-3-cyclopent-2-enyloxy-4-methoxybenzamide]	177 to 178
COc1ncc(C(=O)Cc2c(Cl)cncc2Cl)cc1OC1CCCC1 [Compound CT, 1-(5-cyclopentyloxy-6-methoxypyridin-3-yl)-2-(3,5-dichloropyrid-4-yl)ethanone]	118 to 119
COc1ccc(C(=O)Nc2c(Cl)cncc2Cl)nc1OC1CCCC1 [Compound CS, 6-cyclopentyloxy-N-(3,5-dichloropyrid-4-yl)-5-methoxypyridine-2-carboxamide]	164 to 166
COc1ccc(C(=O)Nc2ccccc2S(C)(=O)=O)cc1OC1CCCC1 [BM, N-(2-methylsulfonylphenyl)-3-cyclopentyloxy-4-methoxybenzamide]	119 to 121
